Measurements as given in patent publication US20110166196A1, “TREATMENT AND PROPHYLAXIS OF EPILEPSY AND FEBRILE SEIZURES” (priority 2008, published 2011).

Experiments:
[1] = test system: excitatory synapses onto CA1 hippocampal interneurons; assay: HFS-induced long-term depression (LTD) of EPSCs, whole-cell recording in hippocampal slices; assay type: cell-based, rat
Text: (§1) The basic methods have been detailed previously (McMahon and Kauer, 1997). Sprague-Dawley rats (15-22 days old) were used in the majority of experiments. In addition, we used TRPV1^−/− mice (Caterina et al., 2000) and wild-type C57BL/6 mice aged between 15 and 21 days (Jackson Laboratory). The TRPV1^−/− mice we used have been backcrossed at least 10 times onto a C57BL/6 background and were obtained from homozygous breeding pairs. Control mice were therefore not littermates but were age-matched, wild-type C57BL/6 animals received from the same supplier in the same shipment. All animal protocols were approved by the Brown University Institutional Animal Care and Use Committee. For mouse experiments, only one brain slice per mouse was used for each experiment, so that reported ‘n’ numbers represent the number of animals. Animals were anaesthetized using halothane or isoflurane and quickly decapitated. The brain was rapidly removed and 300 μm thick coronal slices prepared and stored for at least one hour submerged on a net in artificial cerebrospinal fluid (ACSF) containing in mM: 119 NaCl, 26 NaHCO3, 2.5 KCl, 1.0 NaH2PO4, 2.5 CaCl2, 1.3 MgSO4 and 11 dextrose, saturated with 95% O2/5% CO2 (pH 7.4). Slices were then transferred to a submerged recording chamber and bathed in oxygenated ACSF (28-32° C.) containing elevated divalent cations to reduce epileptiform activity (4 mM CaCl2 and 4 mM MgCl2, replacing MgSO4). A surgical cut was made between the CA3 and CA1 regions. The storage of slices submerged on a net rather than in an interface chamber on filter paper may be important in maintaining slice health and improving the likelihood of observing LTD.
(§2) Slices were continuously perfused with ACSF warmed to 28-32° C. at a flow rate of 1-2 ml/min. Picrotoxin (100 μM) and D-AP5 (50 μM) were added to block GABAA receptor- and NMDAR-mediated synaptic transmission. Whole-cell patch clamp recordings were made from interneurons identified visually in the CA1 stratum radiatum of the hippocampus. […] Patch pipettes were filled with internal recording solution containing in mM: 117 cesium gluconate, 2.8 NaCl, 5 MgCl2, 20 HEPES, 2 ATP-Na^+, 0.3 GTP-Na^+ and 0.6 EGTA. In some experiments 2 μM capsazepine, 140 nM baicalein, or 250 μM GDPβS were also included in the intracellular patch pipette solution. In experiments with BAPTA-containing patch electrodes, EGTA was omitted from the intracellular solution and 25 or 40 mM BAPTA replaced a corresponding amount of cesium gluconate. EPSCs were stimulated at 0.1 Hz (100 μsec) using a bipolar stainless steel stimulating electrode placed in stratum radiatum at least 200 μm from the recorded cell. CA1 interneurons were voltage clamped at −65 mV (not corrected for the liquid junction potential, of ˜10 mV), and EPSCs were evoked by paired pulses with an interval of 50 msec (stimulus intensity typically 50-400 μA). In early experiments, we measured rectification ratios of EPSCs evoked at +40 mV/−60 mV in the presence of 50 μM D-AP5, measured at the time of peak inward synaptic current seen at −70 mV (Lei and McBain, 2004).
High-frequency stimulation was used to induce LTD (HFS; two 1 sec trains at 100 Hz, inter-train interval 20 sec, at 1.5 times test current intensity) with the neuron held in current-clamp mode, so that the HFS trains were delivered with the membrane potential free to vary. Receptor antagonists were added directly to the ACSF at known concentrations for at least 10 minutes prior to HFS. Control experiments were interleaved with those experiments using receptor antagonists or involving slices from TRPVl^−/− mice. The cell input resistance and series resistance were monitored throughout each experiment; cells were discarded if these values changed by more than 10% during the experiment.

[2] = test system: excitatory synapses onto CA1 hippocampal interneurons; assay: Drug-induced depression of EPSC amplitudes, whole-cell recording in hippocampal slices; assay type: cell-based, rat
Text: as §1, §2
The maximal initial slope of fEPSPs was calculated using a LabVIEW-based program (National Instruments). The peak amplitude of each EPSC was measured by comparing a 10 msec time period immediately prior to the stimulus with the peak of the EPSC using this program as well. Occasionally polysynaptic responses were evoked, and in these cases, only the initial monosynaptic event was measured. To positively identify LTD, EPSCs measured every 10 seconds were averaged in 1 minute intervals. EPSC amplitude values were normalized to control pre-HFS EPSC amplitude values (baseline period of at least 5 minutes prior to HFS) and subjected to analysis of variance (ANOVA) repeated measures analysis with a post-hoc Dunnett's test (GraphPad Prism, Version 4).

[3] = molecular target: T1, TRPV1 receptors (Rattus norvegicus, UniProt O35433); assay: Capsaicin-evoked inward current (peak change in holding current) in hippocampal neurons; assay type: cell-based
T1 construct: inward currents were elicited in both CA3 and CA1 pyramidal cells; from tissue; host or cells: acute coronal hippocampal slices: CA1 and CA3 pyramidal cells and CA1 stratum radiatum interneurons
T1 sequence (O35433 whole entry): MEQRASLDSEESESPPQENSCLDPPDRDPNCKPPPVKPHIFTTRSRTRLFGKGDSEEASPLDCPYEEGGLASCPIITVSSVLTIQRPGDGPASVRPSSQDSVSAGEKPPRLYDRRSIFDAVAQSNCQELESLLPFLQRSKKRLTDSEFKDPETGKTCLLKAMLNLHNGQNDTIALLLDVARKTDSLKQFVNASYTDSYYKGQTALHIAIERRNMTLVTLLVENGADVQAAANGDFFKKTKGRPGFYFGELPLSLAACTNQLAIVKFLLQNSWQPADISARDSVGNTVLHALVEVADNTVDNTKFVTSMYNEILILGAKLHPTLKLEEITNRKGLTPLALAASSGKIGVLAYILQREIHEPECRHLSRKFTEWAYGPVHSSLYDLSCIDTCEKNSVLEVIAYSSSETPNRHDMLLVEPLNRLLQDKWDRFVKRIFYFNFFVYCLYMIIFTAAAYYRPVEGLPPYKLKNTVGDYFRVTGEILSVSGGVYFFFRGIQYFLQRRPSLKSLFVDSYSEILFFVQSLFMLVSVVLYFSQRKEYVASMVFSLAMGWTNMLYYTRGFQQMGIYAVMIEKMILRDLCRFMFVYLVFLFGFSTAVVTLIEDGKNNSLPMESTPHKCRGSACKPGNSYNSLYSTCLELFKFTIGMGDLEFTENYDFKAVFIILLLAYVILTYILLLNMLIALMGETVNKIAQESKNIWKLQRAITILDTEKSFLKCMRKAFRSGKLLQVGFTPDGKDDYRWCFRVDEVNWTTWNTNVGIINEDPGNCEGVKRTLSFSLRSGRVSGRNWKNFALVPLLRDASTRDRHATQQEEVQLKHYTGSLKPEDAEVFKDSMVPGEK
Description: as §2
The maximal initial slope of fEPSPs was calculated using a LabVIEW-based program (National Instruments). The peak amplitude of each EPSC was measured by comparing a 10 msec time period immediately prior to the stimulus with the peak of the EPSC using this program as well. Occasionally polysynaptic responses were evoked, and in these cases, only the initial monosynaptic event was measured. To positively identify LTD, EPSCs measured every 10 seconds were averaged in 1 minute intervals. EPSC amplitude values were normalized to control pre-HFS EPSC amplitude values (baseline period of at least 5 minutes prior to HFS) and subjected to analysis of variance (ANOVA) repeated measures analysis with a post-hoc Dunnett's test (GraphPad Prism, Version 4). […] EPSC amplitude values 15 to 20 minutes post-HFS were compared between control LTD experiments and those carried out either in transgenic TRPV1^−/− mice, or in the presence of drug using a t-test (unpaired, two-tailed, with Welch's correction if the variances between the groups were unequal). To calculate the effects of capsaicin, 12-(S)-HPETE or WIN 55,212-2 application on basal excitatory glutamatergic transmission, normalized EPSC amplitudes or fEPSP slopes were averaged in the final 5 minutes of drug application and compared with EPSCs/EPSPs 5 minutes prior to drug application. […] The n-values reported refer to the number of slices. All combined data are expressed as mean±the standard error of the mean (s.e.m.).

[4] = molecular target: T2, TRPV1 channels (Mus musculus, UniProt Q704Y3); assay: TRPV1 agonist-evoked inward current and depolarization in CA1 pyramidal neurons; assay type: cell-based
T2 construct: whole-cell recordings from acutely prepared brain slices from wild type C57BL/6 mice; from tissue; host or cells: acute coronal hippocampal slices from P14-P20 wild-type C57BL/6 mice: CA1 pyramidal neurons
T2 sequence (Q704Y3 whole entry): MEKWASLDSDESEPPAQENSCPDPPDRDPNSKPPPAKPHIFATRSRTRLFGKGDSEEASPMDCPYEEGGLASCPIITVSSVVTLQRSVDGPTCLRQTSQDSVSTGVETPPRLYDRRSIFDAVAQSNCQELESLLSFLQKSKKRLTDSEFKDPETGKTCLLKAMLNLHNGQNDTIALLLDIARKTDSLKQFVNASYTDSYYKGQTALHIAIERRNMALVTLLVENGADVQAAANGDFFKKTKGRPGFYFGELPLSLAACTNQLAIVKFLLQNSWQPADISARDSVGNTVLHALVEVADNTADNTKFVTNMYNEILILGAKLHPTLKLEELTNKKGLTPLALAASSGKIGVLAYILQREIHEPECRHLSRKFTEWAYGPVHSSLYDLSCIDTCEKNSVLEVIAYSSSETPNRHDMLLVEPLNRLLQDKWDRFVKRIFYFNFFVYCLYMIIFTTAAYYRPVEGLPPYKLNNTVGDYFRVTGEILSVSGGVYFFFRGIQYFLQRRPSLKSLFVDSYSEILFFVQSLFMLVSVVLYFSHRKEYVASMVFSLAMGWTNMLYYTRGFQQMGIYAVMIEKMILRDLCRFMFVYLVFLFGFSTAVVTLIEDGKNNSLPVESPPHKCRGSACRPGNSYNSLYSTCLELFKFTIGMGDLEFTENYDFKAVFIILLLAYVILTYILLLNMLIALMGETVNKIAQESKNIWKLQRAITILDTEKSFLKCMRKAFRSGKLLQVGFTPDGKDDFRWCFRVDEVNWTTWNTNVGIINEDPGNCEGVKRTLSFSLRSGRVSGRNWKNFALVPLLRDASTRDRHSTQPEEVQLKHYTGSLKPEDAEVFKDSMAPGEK

[5] = capsaicin 3 μM, capsazepine 10 μM, n=5

Structure (SMILES) | EPSC amplitudes 15-20 minutes post-HFS ([1]; HFS after capsaicin 1 μM exposure (occlusion), n=10) | EPSC amplitudes after 10-15 minutes in capsaicin ([2]; capsaicin 1 μM bath-applied, n=14) | 1 μM capsaicin response in interneurons ([3]; 1 μM capsaicin, P=0.78 vs pre-drug, n=5) [pA] | peak capsaicin response in CA3 pyramidal cells (inward current) ([3]; 3 μM capsaicin bath application, n=5) [pA] | peak capsaicin response in CA1 pyramidal cells (inward current) ([3]; 3 μM capsaicin bath application, n=7) [pA] | peak capsaicin response in interneurons (inward current) ([3]; 3 μM capsaicin, CA1 stratum radiatum interneurons, n=5) [pA] | capsaicin-evoked current in a CA1 neuron ([4]; capsaicin 3 μM bath-applied) | effect on membrane potential of CA1 pyramidal neurons ([4]; capsaicin 3 μM bath-applied, current-clamp) | EPSC amplitudes 10-15 minutes after adding capsazepine ([1]; 10 μM capsazepine added 10 minutes after HFS (LTD maintenance), n=6) | EPSC amplitudes 15-20 minutes post-HFS with intracellular capsazepine ([1]; capsazepine 2 μM in patch pipette, P=0.20 vs control LTD, n=7) | EPSC amplitudes 15-20 minutes post-HFS in capsazepine ([1]; capsazepine 10 μM bath applied prior to HFS, n=9) | EPSC amplitudes after 10-15 minutes in 1 μM capsaicin and in the presence of intracellular capsazepine ([2]; capsazepine 2 μM in patch pipette, capsaicin 1 μM bath, n=6) | EPSC amplitudes after 10-15 minutes in 12-(S)-HPETE and in the presence of capsazepine ([2]; capsazepine 10 μM, 12-(S)-HPETE 100 nM, n=6) | Peak capsaicin response in the presence of capsazepine in CA1 interneurons ([3]; capsaicin 3 μM, capsazepine 10 μM, P=0.06, n=5) [pA] | Peak capsaicin response in the presence of capsazepine in CA1 pyramidal cells [3, 5] [pA] | Peak capsaicin response in the presence of capsazepine in CA3 pyramidal cells [3, 5] [pA] | effect on capsaicin-induced depolarization of CA1 pyramidal neurons ([4]; 2 μM intracellular capsazepine, capsaicin 3 μM, p<0.001) | capsaicin-evoked current in the presence of capsazepine ([4]; capsaicin 3 μM plus capsazepine 10 μM) | effect on 12-(S)-HPETE-evoked inward current ([4]; capsazepine 10 μM, 12-(S)-HPETE 100 nM)
COc1cc(CNC(=O)CCCCC=CC(C)C)ccc1O [capsaicin, 8-methyl-N-vanillyl-6-nonenamide] | 112.5±21.9 % of control values in capsaicin before HFS | 73.3±4.6 % of pre-drug control values | 0.7±0.3 | 180.1±48.0 | 160.1±55.3 | 41.6±16.2 | induces inward current | significantly depolarized | – | – | – | – | – | – | – | – | – | – | –
Oc1cc2c(cc1O)CN(C(=S)NCCc1ccc(Cl)cc1)CCC2 [capsazepine] | – | – | – | – | – | – | – | – | 50.1±6.1 % of pre-HFS values | 47.5±10.3 % of control values before HFS | 105.6±8.6 % of control values before HFS | 46.8±10.3 % of pre-capsaicin control values | 103.0±8.9 % of pre-12-(S)-HPETE control values | 0.4±0.2 | 0.1±0.1 | 0.1±0.1 | prevented | does not induce current | blocked
